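Five compound concentrations were applied to cells in 96-well plates for 48 hours; endpoints were derived by simple linear interpolation of the resulting dose-response curve. GI50: concentration for 50% inhibition of growth.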 Active and inactive are the calls of the source. Rule as the data show it: active = GI50 up to about 1.1 µM and inactive = higher.
Experiments:
Assay in all cases: inhibition of tumour cell growth, NCI panel, 48 h
[1] = test system: EKVX
[2] = test system: HCC 2998
[3] = test system: HCT-116
[4] = test system: HCT-15
[5] = test system: HOP-62
[6] = test system: IGROV-1
[7] = test system: K562
[8] = test system: MDA-MB-231
[9] = test system: MDA-MB-435
[10] = test system: NCI-H23
[11] = test system: NCI-H460
[12] = test system: PC-3
[13] = test system: SF-268
[14] = test system: SF-295
[15] = test system: SW-620
[16] = test system: TK-10
[17] = test system: UACC-62
[18] = test system: UO-31
[19] = test system: CCRF-CEM
[20] = test system: SN12C

Measured: GI50

CC/C(=C/OC)P1(=O)OC(C)(C)CN1C(C)(C)C (stereo unspecified)
> 100 µM: [4]
inactive: [1] > 100 µM | [2] > 100 µM | [3] > 100 µM | [5] > 100 µM | [6] > 100 µM | [7] > 100 µM | [8] > 100 µM | [9] > 100 µM | [10] > 100 µM | [11] > 100 µM | [12] > 100 µM | [13] > 100 µM | [14] > 100 µM | [15] > 100 µM | [16] > 100 µM | [17] > 100 µM | [18] > 100 µM

C[N+](C)(C)CC(=O)N/N=C\c1c(O)ccc2ccccc12
27.7 µM: [4]
inactive: [19] 27.8 µM | [1] 35.7 µM | [3] 42.6 µM | [5] 26.7 µM | [6] 20 µM | [7] 31.9 µM | [8] 92.9 µM | [9] 39.3 µM | [10] 36 µM | [11] 18.1 µM | [12] 37.6 µM | [13] 10.7 µM | [14] 46.1 µM | [20] 32.2 µM | [15] 63.5 µM | [16] 28.2 µM | [17] 28.2 µM | [18] 33.3 µM

CC(=O)c1c(O)c(C)c(O)c(Cc2c(O)c3c(c(C(=O)/C=C/c4ccccc4)c2O)OC(C)(C)C=C3)c1O [ROTTLERIN]
inactive: [19] 2.99 µM | [1] 2.68 µM | [2] 2.23 µM | [3] 1.82 µM | [6] 3.1 µM | [8] 2.08 µM | [9] 2.74 µM | [10] 2.37 µM | [11] 2.94 µM | [13] 3.61 µM | [14] 2.85 µM | [20] 2.21 µM | [15] 3.19 µM | [16] 2.98 µM | [17] 2.95 µM | [18] 2.26 µM
2.52 µM: [4]
active: [7] 1.07 µM | [12] 1.11 µM

CSC(=S)NN=C1CCCC1.CSC(=S)NN=C1CCCC1.[Zn+2]
active: [19] < 0.01 µM
inactive: [1] 55.1 µM | [3] 14.7 µM | [5] 28.3 µM | [6] 10.1 µM | [7] 50.4 µM | [8] 17.8 µM | [9] 28.4 µM | [10] > 100 µM | [11] 31.6 µM | [12] 25.8 µM | [13] 34.1 µM | [14] 16.8 µM | [20] 17.9 µM | [15] 17.1 µM | [16] 19.8 µM | [17] 28.2 µM | [18] 13.4 µM
1.99 µM: [4]

Cl.O=C(O)c1cccnc1
> 100 µM: [4]
inactive: [19] > 100 µM | [1] > 100 µM | [2] > 100 µM | [3] > 100 µM | [5] > 100 µM | [6] > 100 µM | [7] > 100 µM | [8] > 100 µM | [9] > 100 µM | [10] > 100 µM | [11] > 100 µM | [12] > 100 µM | [13] > 100 µM | [14] > 100 µM | [20] > 100 µM | [15] > 100 µM | [16] > 100 µM | [18] > 100 µM

CC(=O)Nc1ccc(C(O)/C(=N/N)c2nc3ccc(Cl)cc3nc2O)cc1 (stereo unspecified)
> 100 µM: [4]
inactive: [19] > 100 µM | [1] > 100 µM | [2] > 100 µM | [3] > 100 µM | [5] > 100 µM | [6] > 100 µM | [8] > 100 µM | [9] > 100 µM | [10] > 100 µM | [11] > 100 µM | [12] > 100 µM | [13] > 100 µM | [14] > 100 µM | [20] > 100 µM | [15] > 100 µM | [16] > 100 µM | [17] > 100 µM | [18] > 100 µM

CC(C)NCC(O)c1ccc(O)c2ncccc12 (stereo unspecified)
inactive: [1] 49.3 µM | [2] 46 µM | [3] 26.4 µM | [5] 35.5 µM | [6] 33.5 µM | [7] 19.5 µM | [8] 27 µM | [9] > 100 µM | [10] 11 µM | [11] 5.58 µM | [12] 46.5 µM | [13] 35.3 µM | [14] 30.9 µM | [20] 30.3 µM | [15] 36.5 µM | [16] 47.3 µM | [17] 60 µM | [18] 67.6 µM
25.9 µM: [4]

CC(C)(C)c1cc(C(C)(C)C)c(SS(=O)(=O)O)c(O)c1O
inactive: [19] 49 µM | [1] 62.1 µM | [3] 33 µM | [5] 54.6 µM | [6] 55.7 µM | [8] 52.7 µM | [9] 23.9 µM | [10] > 100 µM | [11] 10.9 µM | [12] 50.1 µM | [13] 13.4 µM | [14] 31.8 µM | [20] 67 µM | [15] 51.4 µM | [16] > 100 µM | [17] 21.5 µM | [18] > 100 µM
48.3 µM: [4]
active: [7] 0.246 µM

O=S(=O)(c1ccccc1)N1CN2CN(C1)CN(S(=O)(=O)c1ccccc1)C2
inactive: [1] > 100 µM | [2] > 100 µM | [3] > 100 µM | [5] > 100 µM | [6] > 100 µM | [7] > 100 µM | [8] > 100 µM | [9] > 100 µM | [10] > 100 µM | [11] > 100 µM | [12] > 100 µM | [14] > 100 µM | [20] > 100 µM | [15] > 100 µM | [16] > 100 µM | [17] > 100 µM | [18] > 100 µM
> 100 µM: [4]

O=C(/C=C/c1c(O)nc2ccccc2c1O)CC(=O)C(=O)Nc1cccc(O)c1
inactive: [19] 21.1 µM | [1] > 100 µM | [2] > 100 µM | [3] > 100 µM | [6] > 100 µM | [7] > 100 µM | [8] > 100 µM | [9] > 100 µM | [10] > 100 µM | [11] > 100 µM | [12] > 100 µM | [13] > 100 µM | [14] > 100 µM | [20] > 100 µM | [15] > 100 µM | [16] > 100 µM | [17] > 100 µM | [18] > 100 µM
> 100 µM: [4]

O=C(c1ccccc1)c1ccc2[nH]c(-c3c(Cl)c(Cl)c(Cl)c(Cl)c3-c3nnc(-c4ccccc4)o3)nc2c1
7.01 µM: [4]
inactive: [19] 46.3 µM | [1] 54.1 µM | [3] 27.4 µM | [5] 25.8 µM | [6] 29.5 µM | [7] 4.67 µM | [8] 25.4 µM | [9] 3.51 µM | [10] 31.7 µM | [12] 20.7 µM | [13] 31.4 µM | [14] 14.1 µM | [20] 22.4 µM | [15] 29.7 µM | [16] 51.1 µM | [18] 49.3 µM

CSc1nc(-c2ccccc2)nc(C(C#N)C#N)n1
> 100 µM: [4]
inactive: [19] > 100 µM | [1] > 100 µM | [2] > 100 µM | [3] > 100 µM | [5] > 100 µM | [6] > 100 µM | [8] > 100 µM | [9] > 100 µM | [10] > 100 µM | [12] > 100 µM | [13] > 100 µM | [14] > 100 µM | [20] > 100 µM | [15] > 100 µM | [16] > 100 µM | [17] > 100 µM | [18] 61.2 µM

COc1cc(/C=N/c2nc3cc4sc(/N=C/c5cc(OC)c(OC)c(OC)c5)nc4cc3s2)cc(OC)c1OC
55.2 µM: [4]
inactive: [1] 42 µM | [2] > 100 µM | [3] 39.4 µM | [5] 57.1 µM | [6] > 100 µM | [7] 50.1 µM | [8] 79.4 µM | [9] 39.1 µM | [10] 56.1 µM | [11] 21.5 µM | [12] 52.1 µM | [13] 89.1 µM | [14] 56.8 µM | [20] 43 µM | [15] 33.1 µM | [16] > 100 µM | [17] 67.1 µM | [18] 62.8 µM

CC1=CC(=O)/C(=C/NC(=S)NCCc2ccccc2)C(=O)O1
inactive: [1] > 100 µM | [2] > 100 µM | [3] 27.2 µM | [5] > 100 µM | [6] > 100 µM | [8] > 100 µM | [9] > 100 µM | [10] > 100 µM | [11] > 100 µM | [12] > 100 µM | [14] > 100 µM | [20] > 100 µM | [15] > 100 µM | [16] 6.44 µM | [18] > 100 µM
> 100 µM: [4]

NC(Cc1nnn[nH]1)C(=O)O (stereo unspecified)
inactive: [19] > 100 µM | [1] > 100 µM | [3] > 100 µM | [5] > 100 µM | [6] > 100 µM | [7] > 100 µM | [8] > 100 µM | [9] > 100 µM | [10] > 100 µM | [11] > 100 µM | [12] > 100 µM | [13] > 100 µM | [14] > 100 µM | [20] > 100 µM | [15] > 100 µM | [16] > 100 µM | [17] > 100 µM
> 100 µM: [4]

From ChEMBL document CHEMBL1201862, “PubChem BioAssay data set” (2004)
